According to PubChem BioAssay (NCI):
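Following 48 hours of exposure in 96-well plates, responses at five concentrations were used to interpolate endpoints linearly. TGI marks complete inhibition of growth.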

Tests used:
Assay in all cases: DTP human tumour cell line panel, 48 h
COLO 205 colon = tested on: COLO 205 colon
SF-295 CNS = tested on: SF-295 CNS
UO-31 renal = tested on: UO-31 renal
A498 renal = tested on: A498 renal
M14 melanoma = tested on: M14 melanoma
OVCAR-4 ovarian = tested on: OVCAR-4 ovarian
MDA-MB-435 = tested on: MDA-MB-435
SNB-75 CNS = tested on: SNB-75 CNS
HOP-92 NSCLC = tested on: HOP-92 NSCLC
UACC-257 melanoma = tested on: UACC-257 melanoma
SF-268 CNS = tested on: SF-268 CNS
SNB-19 CNS = tested on: SNB-19 CNS
HT29 colon = tested on: HT29 colon
SK-MEL-5 melanoma = tested on: SK-MEL-5 melanoma

SMILES | TGI (COLO 205 colon) | TGI (SF-295 CNS) | TGI (UO-31 renal) | TGI (A498 renal) | TGI (M14 melanoma) | TGI (OVCAR-4 ovarian) | TGI (MDA-MB-435) | TGI (SNB-75 CNS) | TGI (HOP-92 NSCLC) | TGI (UACC-257 melanoma) | TGI (SF-268 CNS) | TGI (SNB-19 CNS) | TGI (HT29 colon) | TGI (SK-MEL-5 melanoma)
CC(C)(C)c1ccc(-c2nc3ccc(Cl)cc3c(=O)o2)cc1 | 39.9 µM | 58.1 µM | 77.6 µM | 79.4 µM | 49.2 µM | 63.1 µM | 56.5 µM | 81.6 µM | 46.8 µM | 65.1 µM | 77.3 µM | 80.1 µM | 63.8 µM | 26.2 µM
CC(=NNC(=S)Nc1ccc(C)cc1)c1cccc(C(C)=NNC(=S)Nc2ccc(C)cc2)n1 | 43.8 µM | 71.7 µM | > 100 µM | 80.9 µM | 47.7 µM | 89.1 µM | > 100 µM | 85 µM | > 100 µM | 69.7 µM | > 100 µM | > 100 µM | > 100 µM | 38.7 µM
Cc1ccc(NC(=S)N/N=C(/c2ccccc2)c2ccccn2)cc1 | 2.89 µM | 12.7 µM | 7.68 µM | 11.2 µM | 2.21 µM | 16.6 µM | 14.7 µM | 5.16 µM | 8.82 µM | 1.9 µM | 1.32 µM | 22.2 µM | 20.3 µM | 5.08 µM
COc1ccc(N2C(=O)C3ON(C(C(N)=O)c4ccccc4)C(c4cc5ccccc5c5ccccc45)C3C2=O)cc1 (stereo unspecified) | > 50 µM | > 50 µM | 34.5 µM | > 50 µM | > 50 µM | > 50 µM | > 50 µM | > 50 µM | > 50 µM | > 50 µM | > 50 µM | > 50 µM | > 50 µM | > 50 µM
O=C1O/C(=C(/Cl)c2cccc3ccccc23)c2ccccc21 | > 100 µM | > 100 µM | > 100 µM | > 100 µM | > 100 µM | > 100 µM | > 100 µM | 55.2 µM | > 100 µM | > 100 µM | > 100 µM | > 100 µM | > 100 µM | > 100 µM
CCCCCCCCCCN(CCCCCCCCCC)C(=O)COc1c2cc(C(C)(C)C)cc1Cc1cc(C(C)(C)C)cc(c1OCC(=O)N(CCCCCCCCCC)CCCCCCCCCC)Cc1cc(C(C)(C)C)cc(c1OCC(=O)N(CCCCCCCCCC)CCCCCCCCCC)Cc1cc(C(C)(C)C)cc(c1OCC(=O)N(CCCCCCCCCC)CCCCCCCCCC)C2 | 29.2 µM | 21.7 µM | 37.1 µM | 29.1 µM | 8.01 µM | 22.4 µM | 25.6 µM | 32.5 µM | 11.4 µM | 29.6 µM | 29.9 µM | 22.1 µM | 12.3 µM | 26.4 µM
O=C1N[C@@H](c2c[nH]c3cc(Br)ccc23)C(=O)N[C@H]1c1c[nH]c2cc(Br)ccc12 | > 100 µM | > 100 µM | > 100 µM | > 100 µM | > 100 µM | > 100 µM | > 100 µM | 90.1 µM | > 100 µM | > 100 µM | > 100 µM | > 100 µM | > 100 µM | > 100 µM
O=[N+]([O-])c1cccc2nc3ccccc3c(NCCC[N+]3([O-])CCOCC3)c12 | 0.24 µM | 1.38 µM | 4.59 µM | 0.422 µM | 0.921 µM | 0.455 µM | 0.331 µM | 0.683 µM | 0.29 µM | 1.29 µM | 1.91 µM | 2.8 µM | 0.761 µM | 0.241 µM
CN1C2CCC1CC(CCNC(c1ccccc1)c1ccccc1)C2 (stereo unspecified) | 23.6 µM | 49 µM | 56.5 µM | 60.5 µM | 24.9 µM | > 100 µM | 21.4 µM | > 100 µM | 43.2 µM | 31.8 µM | > 100 µM | > 100 µM | > 100 µM | 25.5 µM
C=C1CC[C@H](O)C(C)(C)[C@@H]1CC/C(C)=C/CC/C=C(\C)CC/C=C(\C)CCC=C(C)C | > 100 µM | > 100 µM | > 100 µM | > 100 µM | > 100 µM | > 100 µM | > 100 µM | > 100 µM | > 100 µM | > 100 µM | > 100 µM | > 100 µM | > 100 µM | > 100 µM
CCOC(=O)C1(C(=O)OCC)C[C@H](C)[C@](C)(O)C1 | > 100 µM | > 100 µM | > 100 µM | > 100 µM | > 100 µM | > 100 µM | > 100 µM | > 100 µM | > 100 µM | > 100 µM | > 100 µM | > 100 µM | > 100 µM | > 100 µM
COC(=O)CCc1cc(O)c2c(c1)C(C(=O)OC)C(c1ccc(O)c(O)c1)O2 (stereo unspecified) | > 100 µM | 97 µM | > 100 µM | > 84.5 µM | > 100 µM | > 100 µM | 4.67 µM | 8.41 µM | > 100 µM | > 100 µM | > 100 µM | > 100 µM | > 96.4 µM | 20.4 µM
CNc1nc2n(CCO)c(-c3ccccc3)c(-c3ccccc3)nc-2c(=O)n1 | > 50 µM | > 50 µM | > 50 µM | > 50 µM | > 50 µM | > 50 µM | > 50 µM | > 50 µM | > 50 µM | > 50 µM | > 50 µM | > 50 µM | > 50 µM | > 50 µM
O=c1[nH]c(Nc2nc3ccccc3[nH]2)nc2c1CCC2 | > 100 µM | > 100 µM | > 100 µM | > 100 µM | > 100 µM | > 100 µM | > 100 µM | 77.8 µM | > 100 µM | > 100 µM | > 100 µM | > 100 µM | > 100 µM | > 100 µM
Cc1ccc2c(c1)C1(C)OC(C=CC1=O)O2 (stereo unspecified) | 1.43 µM | 11.9 µM | 2.36 µM | 13.4 µM | 1.13 µM | 2.29 µM | 0.317 µM | 4.35 µM | 1.48 µM | 3.45 µM | 10.3 µM | 8.97 µM | 0.684 µM | 2.79 µM
CC(C)(C)C1=CC(=C(c2ccc(-c3c4nc(c(-c5ccc(C(=C6C=C(C(C)(C)C)C(=O)C(C(C)(C)C)=C6)c6cc(C(C)(C)C)c(O)c(C(C)(C)C)c6)cc5)c5ccc([nH]5)c(-c5ccc(C(=C6C=C(C(C)(C)C)C(=O)C(C(C)(C)C)=C6)c6cc(C(C)(C)C)c(O)c(C(C)(C)C)c6)cc5)c5nc(c(-c6ccc(C(=C7C=C(C(C)(C)C)C(=O)C(C(C)(C)C)=C7)c7cc(C(C)(C)C)c(O)c(C(C)(C)C)c7)cc6)c6ccc3[nH]6)C=C5)C=C4)cc2)c2cc(C(C)(C)C)c(O)c(C(C)(C)C)c2)C=C(C(C)(C)C)C1=O | > 100 µM | > 100 µM | > 100 µM | > 100 µM | > 100 µM | > 100 µM | > 100 µM | > 100 µM | > 100 µM | > 100 µM | > 100 µM | > 100 µM | > 100 µM | > 100 µM
COC/C=C\[C@]1(O)CCCC[C@@H]1CC(OC)OC | > 100 µM | > 100 µM | > 100 µM | > 100 µM | > 100 µM | > 100 µM | > 100 µM | > 100 µM | > 100 µM | > 100 µM | > 100 µM | > 100 µM | > 100 µM | > 100 µM
COc1ccc(O)c(/C(C)=N/NC(=S)N(C)C)c1 | > 100 µM | > 100 µM | > 100 µM | > 100 µM | > 100 µM | 54.3 µM | > 100 µM | > 100 µM | > 100 µM | > 100 µM | > 100 µM | > 100 µM | > 100 µM | > 100 µM
COC(=O)C(COC(C)=O)NC(=O)/C=C/c1ccc(O)c(OC(C)=O)c1 (stereo unspecified) | > 100 µM | > 100 µM | > 100 µM | > 100 µM | > 100 µM | > 100 µM | > 100 µM | > 100 µM | > 100 µM | > 100 µM | > 100 µM | > 100 µM | > 100 µM | > 100 µM
